This is an account of results in US9469631B2 (Boehringer Ingelheim International GmbH, priority 2012, dated 2016).

In this test the target is human GPR119 (Homo sapiens (Human), UniProt Q8TDV5). The experiment in a line: AlphaScreen cAMP assay in MIN6 cells stably transfected with human GPR119. In kind it is cell-based. As to conditions: Min-6/hGPR119 cells, 45 min incubation at room temperature. The procedure, abridged: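 MIN6 cells stably expressing human GPR119 were seeded at 10000 cells/well for 24 h. Compounds were then applied in pH 7.4 buffer with 0.5 mM IBMX, 0.1% BSA and 1% DMSO for 45 min at about 20 °C. Intracellular cAMP was measured by AlphaScreen.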
Sequence of human GPR119 (Q8TDV5 whole entry): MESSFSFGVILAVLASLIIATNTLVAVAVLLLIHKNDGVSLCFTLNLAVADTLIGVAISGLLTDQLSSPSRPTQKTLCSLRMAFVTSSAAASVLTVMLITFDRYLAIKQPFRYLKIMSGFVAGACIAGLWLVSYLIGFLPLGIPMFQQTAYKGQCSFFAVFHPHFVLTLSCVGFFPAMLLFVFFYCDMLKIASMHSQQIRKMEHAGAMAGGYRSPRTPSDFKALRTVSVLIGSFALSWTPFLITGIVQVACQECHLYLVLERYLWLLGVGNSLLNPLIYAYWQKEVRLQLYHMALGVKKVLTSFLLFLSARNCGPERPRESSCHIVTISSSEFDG
(Alpha assays give light when donor and acceptor beads are brought close together.)
A word on the EC50: it is the concentration that produces a half-maximal response. Low readings indicate an effect from little substance, high ones a need for much substance. In turn, `CC(C)(C)OC(=O)N1CCC(N(C(=O)c2ccc(-c3ccc(NS(C)(=O)=O)cc3)cc2)C2CC2)CC1` [Example 92, 4-[Cyclopropyl-(4′-methanesulfonylamino-biphenyl-4-carbonyl)-amino]-piperidine-1-carboxylic acid tert-butyl ester] gave an EC50 of 79 nM.

For the molecule `CC(C)(C)OC(=O)N1CCC(N(C(=O)c2ccc(-c3ccc(S(C)(=O)=O)cc3)cc2)C2CC2)CC1` [Example 93, 4-[Cyclopropyl-(4′-methanesulfonyl-biphenyl-4-carbonyl)-amino]-piperidine-1-carboxylic acid tert-butyl ester], a half-maximal effect (EC50) was put at 177 nM.

As for `CC(C)(C)OC(=O)N1CCC(N(C(=O)c2ccc(-c3ccccc3C#N)cc2)C2CC2)CC1` [Example 94, 4-[(2′-Cyano-biphenyl-4-carbonyl)-cyclopropyl-amino]-piperidine-1-carboxylic acid tert-butyl ester], a half-maximal response (EC50) required 317 nM.

For the molecule `Cc1noc(C)c1-c1ccc(C(=O)N(C2CC2)C2CCN(C(=O)OC(C)(C)C)CC2)cc1` [Example 95, 4-{Cyclopropyl-[4-(3,5-dimethyl-isoxazol-4-yl)-benzoyl]-amino}-piperidine-1-carboxylic acid tert-butyl ester], it took 85 nM to reach a half-maximal effect (EC50). This EC50 is about 3.7-fold lower than that of the molecule before.

`COc1ccc(-c2ccc(C(=O)N(C3CC3)C3CCN(C(=O)OC(C)(C)C)CC3)cc2)cn1` [Example 96, 4-{Cyclopropyl-[4-(6-methoxy-pyridin-3-yl)-benzoyl]-amino}-piperidine-1-carboxylic acid tert-butyl ester] had an EC50 of 131 nM.

In the case of `CC(C)(C)NS(=O)(=O)c1ccccc1-c1ccc(C(=O)N(C2CC2)C2CCN(C(=O)OC(C)(C)C)CC2)cc1` [Example 97, 4-[(2′-tert-Butylsulfamoyl-biphenyl-4-carbonyl)-cyclopropyl-amino]-piperidine-1-carboxylic acid tert-butyl ester], a half-maximal effect (EC50) was put at 161 nM.

`CC(C)(C)OC(=O)N1CCC(N(C(=O)c2ccc(-c3ccc(CO)cc3)cc2)C2CC2)CC1` [Example 98, 4-[Cyclopropyl-(4′-hydroxymethyl-biphenyl-4-carbonyl)-amino]-piperidine-1-carboxylic acid tert-butyl ester] returned an EC50 of 68 nM.

In the case of `COc1ncc(-c2ccc(C(=O)N(C3CC3)C3CCN(C(=O)OC(C)(C)C)CC3)cc2)cn1` [Example 99, 4-{Cyclopropyl-[4-(2-methoxy-pyrimidin-5-yl)-benzoyl]-amino}-piperidine-1-carboxylic acid tert-butyl ester], the midpoint of the response, the EC50, lay at 55 nM.

Molecule `CC(C)(C)OC(=O)N1CCC(N(C(=O)c2ccc(-c3ccc(C#N)nc3)cc2)C2CC2)CC1` [Example 100, 4-{[4-(6-Cyano-pyridin-3-yl)-benzoyl]-cyclopropyl-amino}-piperidine-1-carboxylic acid tert-butyl ester] yielded an EC50 of 34 nM.

In turn, `CC(C)(C)OC(=O)N1CCC(N(C(=O)c2ccc(-c3ccc(N4CCOCC4)cc3)cc2)C2CC2)CC1` [Example 101, 4-[Cyclopropyl-(4′-morpholin-4-yl-biphenyl-4-carbonyl)-amino]-piperidine-1-carboxylic acid tert-butyl ester] gave an EC50 of 127 nM.

In turn, `CC(C)(C)OC(=O)N1CCC(N(C(=O)c2ccc(-c3ccc(C(N)=O)cc3)cc2)C2CC2)CC1` [Example 102, 4-[(4′-Carbamoyl-biphenyl-4-carbonyl)-cyclopropyl-amino]-piperidine-1-carboxylic acid tert-butyl ester] gave an EC50 of 39 nM.

In turn, `CCNC(=O)c1ccc(-c2ccc(C(=O)N(C3CC3)C3CCN(C(=O)OC(C)(C)C)CC3)cc2)cc1` [Example 103, 4-[Cyclopropyl-(4′-ethylcarbamoyl-biphenyl-4-carbonyl)-amino]-piperidine-1-carboxylic acid tert-butyl ester] had an EC50 of 51 nM. The EC50 values of the last two molecules are within 1.5-fold of each other.

Consider `CC(=O)NCc1ccc(-c2ccc(C(=O)N(C3CC3)C3CCN(C(=O)OC(C)(C)C)CC3)cc2)cc1` [Example 104, 4-{[4′-(Acetylamino-methyl)-biphenyl-4-carbonyl]-cyclopropyl-amino}-piperidine-1-carboxylic acid tert-butyl ester], for which the EC50 came out at 333 nM.

Consider `CC(C)(C)OC(=O)N1CCC(N(C(=O)c2ccc(-c3ccc(S(N)(=O)=O)cc3)cc2)C2CC2)CC1` [Example 105, 4-[Cyclopropyl-(4′-sulfamoyl-biphenyl-4-carbonyl)-amino]-piperidine-1-carboxylic acid tert-butyl ester], for which the EC50 was 115 nM.

`CC(C)(C)OC(=O)N1CCC(N(C(=O)c2ccc(-c3ccc(C#N)c(F)c3)cc2)C2CC2)CC1` [Example 106, 4-[(4′-Cyano-3′-fluoro-biphenyl-4-carbonyl)-cyclopropyl-amino]-piperidine-1-carboxylic acid tert-butyl ester] displayed an EC50 of 78 nM.

In the case of `COC(=O)c1ccc(-c2ccc(C(=O)N(C3CC3)C3CCN(C(=O)OC(C)(C)C)CC3)cc2)cn1` [Example 107, 5-{4-[(1-tert-Butoxycarbonyl-piperidin-4-yl)-cyclopropyl-carbamoyl]-phenyl}-pyridine-2-carboxylic acid methyl ester], the EC50 was determined as 66 nM.

In turn, `CC(C)(C)OC(=O)N1CCC(N(C(=O)c2ccc(-c3ccc(O)nc3)cc2)C2CC2)CC1` [Example 108, 4-{Cyclopropyl-[4-(6-hydroxy-pyridin-3-yl)-benzoyl]-amino}-piperidine-1-carboxylic acid tert-butyl ester] came in with a concentration for a half-maximal effect (EC50) of 461 nM.

Molecule `CCOc1ccc(-c2ccc(C(=O)N(C3CC3)C3CCN(C(=O)OC(C)(C)C)CC3)cc2)cn1` [Example 109, 4-{Cyclopropyl-[4-(6-ethoxy-pyridin-3-yl)-benzoyl]-amino}-piperidine-1-carboxylic acid tert-butyl ester] showed an EC50 of 316 nM.

`CC(C)(C)OC(=O)N1CCC(N(C(=O)c2ccc(-c3ccc(S(C)(=O)=O)cc3F)cc2)C2CC2)CC1` [Example 110, 4-[Cyclopropyl-(2′-fluoro-4′-methanesulfonyl-biphenyl-4-carbonyl)-amino]-piperidine-1-carboxylic acid tert-butyl ester] displayed an EC50 of 44 nM.

Regarding `CNS(=O)(=O)c1ccc(-c2ccc(C(=O)N(C3CC3)C3CCN(C(=O)OC(C)(C)C)CC3)cc2)cc1` [Example 111, 4-[Cyclopropyl-(4′-methylsulfamoyl-biphenyl-4-carbonyl)-amino]-piperidine-1-carboxylic acid tert-butyl ester], it took 111 nM to reach a half-maximal effect (EC50).

As to `CN(C)Cc1ccc(-c2ccc(C(=O)N(C3CC3)C3CCN(C(=O)OC(C)(C)C)CC3)cc2)cc1` [Example 112, 4-[Cyclopropyl-(4′-dimethylaminomethyl-biphenyl-4-carbonyl)-amino]-piperidine-1-carboxylic acid tert-butyl ester], the response was half-maximal at 1740 nM (EC50).

As to `CC(C)(C)OC(=O)N1CCC(N(C(=O)c2ccc(-c3cncc(C#N)c3)cc2)C2CC2)CC1` [Example 113, 4-{[4-(5-Cyano-pyridin-3-yl)-benzoyl]-cyclopropyl-amino}-piperidine-1-carboxylic acid tert-butyl ester], the midpoint of the response, the EC50, lay at 48 nM.

In the case of `CN(C)c1ccc(-c2ccc(C(=O)N(C3CC3)C3CCN(C(=O)OC(C)(C)C)CC3)cc2)cn1` [Example 114, 4-{Cyclopropyl-[4-(6-dimethylamino-pyridin-3-yl)-benzoyl]-amino}-piperidine-1-carboxylic acid tert-butyl ester], the midpoint of the response, the EC50, lay at 229 nM.

The molecule `CC(C)(C)OC(=O)N1CCC(N(C(=O)c2ccc(-c3ccc(C(=O)O)nc3)cc2)C2CC2)CC1` [Example 115, 5-{4[(1-tert-Butoxycarbonyl-piperidin-4-yl)-cyclopropyl-carbamoyl]-phenyl}-pyridine-2-carboxylic acid] yielded an EC50 of 1090 nM. Against the preceding molecule, the EC50 is about 4.8-fold higher.

Take `COC(=O)N1CCC(N(C(=O)c2ccc(-c3cnco3)cc2)C2CC2)CC1` [Example 116, 4-[Cyclopropyl-(4-oxazol-5-yl-benzoyl)-amino]-piperidine-1-carboxylic acid methyl ester]: a half-maximal response (EC50) required 1570 nM.

For `CCOC(=O)N1CCC(N(C(=O)c2ccc(-c3cnco3)cc2)C2CC2)CC1` [Example 117, 4-[Cyclopropyl-(4-oxazol-5-yl-benzoyl)-amino]-piperidine-1-carboxylic acid ethyl ester], the EC50 was determined as 222 nM.

`CC(C)OC(=O)N1CCC(N(C(=O)c2ccc(-c3cnco3)cc2)C2CC2)CC1` [Example 118, 4-[Cyclopropyl-(4-oxazol-5-yl-benzoyl)-amino]-piperidine-1-carboxylic acid isopropyl ester] showed an EC50 of 62 nM. Compared with the last molecule, the EC50 is about 3.6-fold lower.

Molecule `O=C(Oc1ccc(F)cc1)N1CCC(N(C(=O)c2ccc(-c3cnco3)cc2)C2CC2)CC1` [Example 119, 4-[Cyclopropyl-(4-oxazol-5-yl-benzoyl)-amino]-piperidine-1-carboxylic acid 4-fluoro-phenyl ester] registered an EC50 of 89 nM.

In the case of `COc1ccc(OC(=O)N2CCC(N(C(=O)c3ccc(-c4cnco4)cc3)C3CC3)CC2)cc1` [Example 120, 4-[Cyclopropyl-(4-oxazol-5-yl-benzoyl)-amino]-piperidine-1-carboxylic acid 4-methoxy-phenyl ester], the concentration for a half-maximal effect (EC50) worked out at 71 nM.

In turn, `CC(C)(C)COC(=O)N1CCC(N(C(=O)c2ccc(-c3cnco3)cc2)C2CC2)CC1` [Example 121, 4-[Cyclopropyl-(4-oxazol-5-yl-benzoyl)-amino]-piperidine-1-carboxylic acid 2,2-dimethyl-propyl ester] yielded an EC50 of 45 nM.

Molecule `CCCOC(=O)N1CCC(N(C(=O)c2ccc(-c3cnco3)cc2)C2CC2)CC1` [Example 123, 4-[Cyclopropyl-(4-oxazol-5-yl-benzoyl)-amino]-piperidine-1-carboxylic acid propyl ester] returned an EC50 of 80 nM.

`O=C(Oc1ccccc1)N1CCC(N(C(=O)c2ccc(-c3cnco3)cc2)C2CC2)CC1` [Example 124, 4-[Cyclopropyl-(4-oxazol-5-yl-benzoyl)-amino]-piperidine-1-carboxylic acid phenyl ester]: the EC50 is 88 nM.
